Experimental data: patent US6333338A, “Bispiperidines as antithrombotic agents” (Laboratoire L. Lafon, priority 1998, dated 2001)
Where a name gives a salt, the structure may show the parent alone. Read-outs that look alike come from different tables or passages of the source.

Key:
guinea pig platelets [1] = assay: In vitro inhibition of collagen-induced platelet aggregation, guinea pig platelets (PRP); type: cell-based, guinea pig (male Dunkin-Hartley); conditions: Cavia porcellus, Platelet, 0.05 h, collagen 1 μg/ml, 3 minutes of contact at 37° C.
Experimental: (§1) A study of the inhibitory activity of the compounds of formula I on platelet aggregation was carried out in vitro, i.e. by direct contact of solutions of variable concentrations of the compounds with platelets freshly separated from a sample of total blood, taken under standardized conditions, from laboratory animals (guinea pigs) and from healthy human subjects who have not received any substances or drugs that might interfere with blood clotting. The anti-platelet-aggregating activity was also studied ex vivo/vitro, i.e. after administration of the substances claimed to guinea pigs to measure the intensity and duration of the anti-aggregating action induced by the fraction of the test product absorbed and circulating in the blood.
Blood is taken by intracardiac puncture from male Dunkin-Hartley guinea pigs (weighing about 330 g), at a rate of 4.5 ml per 0.5 ml of trisodium citrate (concentration of the aqueous solution: 1.55%) in order to prevent all trace of clotting. The platelet-rich plasma (PRP) is obtained by centrifuging the tubes of total blood for 15 minutes at 150 g.
The PRPs are collected as "pools". The platelets contained in these pools are counted using a Coulter ZM haematology automatic device: if necessary, a dilution is carried out in order for the platelet concentration in the plasma to be between 200,000 and 400,000 platelets/mm^3. Simultaneously, other samples of these pools serve to prepare the platelet-poor plasma (PPP) by centrifugation at 1500 g for 15 minutes.
The kinetic study of the platelet aggregation is carried out by adding a collagen solution (1 μg/ml) to a volume of PRP, using a Chrono-log Corporation aggregometer (490-D1 or 560 VS) which uses an optical detection of the appearance of the thrombus.
The measurements of the aggregation inhibition are carried out after 3 minutes of contact at 37° C. with agitation.

human platelets = assay: In vitro inhibition of collagen-induced platelet aggregation, human platelets (PRP); type: cell-based; conditions: 0.05 h, collagen 5 μg/ml, 3 minutes of contact at 37° C., read-out: IC50 (M) in vitro, Man
Experimental: as §1
Venous blood is taken from a group of ten healthy human subjects of the same age, by puncture into a vein of the fold of the elbow and is collected in a glass tube containing aqueous 0.129 M sodium citrate solution (1 volume of citrate solution per 9 volumes of blood). Each tube is then centrifuged a first time at 20° C. and 100 g for 15 minutes in order to obtain the platelet-rich plasma (PRP); after removing this PRP, the tube is again centrifuged at 2000 g for 15 minutes in order this time to remove the platelet-poor plasma (PPP).
For each identified sample of PRP, the platelets are counted using a Coulter ZM counter. Each sample is then used to study the variation in inhibition of the platelet aggregation triggered by the addition of a Chromo-par Reagent collagen glucose solution from Coultronics (used at a concentration of 5 μg/ml) as a function of the addition of increasing concentrations of each compound in a range covering the interval 10^-8 M→10^-5 M, (example of concentrations: 10^-8 M, […], 6×10^-6 M, 4×10^-6 M, 2×10^-6 M, 10^-6 M, […], 10^-5 M). Beforehand, for each compound, an aqueous 10^-3 M solution is prepared. A control test intended to check the possible effect of the solvents (reference value) on the platelet aggregation is introduced into each measurement series, and is measured after 3 minutes of contact at 37° C. with agitation.
From the percentages of inhibition of the platelet aggregation measured for each concentration of each compound, the 50% inhibitory concentration (IC50) is calculated.

guinea pig platelets [2] = assay: Ex vivo/vitro inhibition of platelet aggregation after administration via the gastric route in guinea pigs; set-up: species or system guinea pig (Dunkin-Hartley); conditions: Cavia porcellus, Platelet, 10 mg/kg, fasted guinea pigs
Experimental: as §1, with “blood. Evaluation of the anti-platelet-aggregating activity of the compounds is carried out in the same guinea pigs as those mentioned above (Dunkin-Hartley strain). […] The allocation of the treatments to the animals is random. The blood is taken and then treated under the same conditions as those described above for the in vitro studies. The results of the inhibition of the platelet aggregation obtained for each test concentration make it possible to calculate the IC50 concentration of each test product and the kinetics of the inhibitory effect and its duration of action.” for “blood.”

[3] = 1 h before blood sampling, read-out: % of g.r. inhibition guinea pig ex vivo, d = 10 mg/kg, 1 h
[4] = 2 h before blood sampling, read-out: % of g.r. inhibition guinea pig ex vivo, d = 10 mg/kg, 2 h

SMILES	IC50 (guinea pig platelets [1]) [nM]	IC50 (human platelets) [M]	inhibition at 10 mg/kg (guinea pig platelets [2]; [3]) [%]	inhibition at 10 mg/kg (guinea pig platelets [2]; [4]) [%]
O=C(CNC(=O)C(CCC1CCNCC1)CCC1CCNCC1)NC[C@H](NS(=O)(=O)c1ccc2ccccc2c1)C(=O)O [Example 27, (2S)-2-[(2-Naphthylsulphonyl)amino]-3-{[2-({4-(4-piperidyl)-2-[2-(4-piperidyl)ethyl]butanoyl}amino)acetyl]amino}propanoic Acid Dihydrochloride]	19	4.4e-08		
Cc1n[nH]c(C)c1S(=O)(=O)NC(CNC(=O)CNC(=O)C(CCC1CCNCC1)CCC1CCNCC1)C(=O)O (centres unmarked) [Example 55, 2-{[3,5-Dimethyl-1H-pyrazol-4-yl)sulphonyl]amino}-3-{[2-({4-(4-piperidyl)-2-[2-(4-piperidyl)ethyl]butanoyl}amino)acetyl]amino}propanoic Acid Dihydrochloride]	3500		-21	-17
O=C(CNC(=O)C(CCC1CCNCC1)CCC1CCNCC1)NC[C@H](NS(=O)(=O)c1cccnc1)C(=O)O [Example 56, 2-[(3-Pyridylsulphonyl)amino]3-{[2-({4-(4-piperidyl)-2-[2-(4-piperidyl)ethyl]butanoyl}amino)acetyl]amino}propanoic Acid Trihydrochloride]	230		-61	-50
O=C(CNC(=O)C(CCC1CCNCC1)CCC1CCNCC1)NC[C@H](NS(=O)(=O)c1ccc2c(c1)OCO2)C(=O)O [Example 57, 2-[(1,3-Benzodioxol-5-ylsulphonyl)amino]-3-{[2-({4-(4-piperidyl)-2-[2-(4-piperidyl)ethyl]butanoyl}amino)acetyl]amino}propanoic Acid Dihydrochloride]	830		-38	-24
O=C(CNC(=O)C(CCC1CCNCC1)CCC1CCNCC1)NCC(NS(=O)(=O)c1ccc2c(c1)OCCO2)C(=O)O (centres unmarked) [Example 58, 2-[(2,3-Dihydro-1,4-benzodioxin-6-ylsulphonyl)amino]-3-{[2-({4-(4-piperidyl)-2-[2-(4-piperidyl)ethyl]butanoyl}amino)acetyl]amino}propanoic Acid Dihydrochloride]	590		-36	-21
Cc1cc(S(=O)(=O)NC(CNC(=O)CNC(=O)C(CCC2CCNCC2)CCC2CCNCC2)C(=O)O)c(C)o1 (centres unmarked) [Example 60, 2-{[(2,5-Dimethyl-3-furyl)sulphonyl]amino}-3-{[2-({4-(4-piperidyl)-2-[2-(4-piperidyl)ethyl]butanoyl}amino)acetyl]amino}propanoic Acid Dihydrochloride]	660		-53	-32
O=C(CNC(=O)C(CCC1CCNCC1)CCC1CCNCC1)NCC(NS(=O)(=O)c1ccc(C2CCCCC2)cc1)C(=O)O (centres unmarked) [Example 61, 2-{[(4-Cyclohexylphenyl)sulphonyl]amino)-3-{[2-({4-(4-piperidyl)-2-[2-(4-piperidyl)ethyl]butanoyl}amino)acetyl]amino}propanoic Acid Dihydrochloride]	1400		-21	-9
O=C(CNC(=O)C(CCC1CCNCC1)CCC1CCNCC1)NCC(NS(=O)(=O)c1ccc(F)c2ccccc12)C(=O)O (centres unmarked) [Example 62, 2-{[(4-Fluoro-1-naphthyl)sulphonyl]amino}-3-{[2-({4-(4-piperidyl)-2-[2-(4-piperidyl)ethyl]butanoyl}amino)acetyl]amino}propanoic Acid Dihydrochloride]	95		-69	-33
O=C(CNC(=O)C(CCC1CCNCC1)CCC1CCNCC1)NCC(NS(=O)(=O)c1ccc2c(c1)CCO2)C(=O)O (centres unmarked) [Example 64, 2-[(2,3-Dihydro-1-benzofuran-5-ylsulphonyl)amino]-3-{[2-({4-(4-piperidyl)-2-[2-(4-piperidyl)ethyl]butanoyl}amino)acetyl]amino}propanoic Acid Dihydrochloride]	370		-65	-5
O=C(CNC(=O)C(CCC1CCNCC1)CCC1CCNCC1)NC[C@H](NS(=O)(=O)c1ccc(-c2cccs2)cc1)C(=O)O [Example 65, 2-({[4-(2-Thienyl)phenyl]sulphonyl}amino) 3-{[2-({4-(4-piperidyl)-2-[2-(4-piperidyl)ethyl]butanoyl}amino)acetyl]amino}propanoic Acid Dihydrochloride]	200		-65	-12
O=C(CNC(=O)C(CCC1CCNCC1)CCC1CCNCC1)NCC(NS(=O)(=O)c1ccccc1-c1cccs1)C(=O)O (centres unmarked) [Example 66, 2-({[2-(2-Thienyl)phenyl]sulphonyl}amino) 3-{[2-({4-(4-piperidyl)-2-[2-(4-piperidyl)ethyl]butanoyl}amino)acetyl]amino}propanoic Acid Dihydrochloride]	350		-18	0
O=C(CNC(=O)C(CCC1CCNCC1)CCC1CCNCC1)NCC(NS(=O)(=O)c1cc2ccccc2o1)C(=O)O (centres unmarked) [Example 68, 2-[(1-Benzofuran-2-ylsulphonyl)amino]-3-{[2-({4-(4-piperidyl)-2-[2-(4-piperidyl)ethyl]butanoyl}amino)acetyl]amino}propanoic Acid Dihydrochloride]	180		-72	-71
O=C(CNC(=O)C(CCC1CCNCC1)CCC1CCNCC1)NCC(NS(=O)(=O)Cc1ccc2ccccc2c1)C(=O)O (centres unmarked) [Example 69, 2-{[(2-Naphthylmethyl)sulphonyl]amino}-3-{[2-({4-(4-piperidyl)-2-[2-(4-piperidyl)ethyl]butanoyl}amino)acetyl]amino}propanoic Acid Dihydrochloride]	1900		-69	-3
O=C(CNC(=O)C(CCC1CCNCC1)CCC1CCNCC1)NCC(NS(=O)(=O)c1ccc2c(c1)CCC2)C(=O)O (centres unmarked) [Example 70, 2-[(2,3-Dihydro-1H-inden-5-ylsulphonyl)amino]-3-{[2-({4-(4-piperidyl)-2-[2-(4-piperidyl)ethyl]butanoyl}amino)acetyl]amino}propanoic Acid Dihydrochloride]	400		-32	-34
O=C(CNC(=O)C(CCC1CCNCC1)CCC1CCNCC1)NCC(NS(=O)(=O)c1ccc2c(c1)CCCC2)C(=O)O (centres unmarked) [Example 72, 2-[(5,6,7,8-Tetrahydro-2-naphthalenylsulphonyl)amino]3-{[2-({4-(4-piperidyl)-2-[2-(4-piperidyl)ethyl]butanoyl}amino)acetyl]amino}propanoic Acid Dihydrochloride]	340		-60	-67
